This note sets out measurements from ChEMBL document CHEMBL1201862, “PubChem BioAssay data set” (2004).

Each structure is given as a SMILES string.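 Dose response: 5 concentrations. Exposure: 48 h. Format: 96-well plates. Endpoint: linear interpolation; highest concentration if not reached. The concentration for 50% growth inhibition is given as GI50.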 Activity calls are given as the source filed them. No stated cut-off is given here; in the data, active = GI50 up to about 1.1 µM and inactive = higher.

As a reminder, the GI50 is the concentration giving 50% growth inhibition.

Test systems include 786-0; A498; BT-549; CAKI-1; HCT-116; Hs-578T; MCF7; MDA-N; Malme-3M; NCI-H226; OVCAR-4; SF-295; SK-MEL-28; SK-MEL-2; SNB-19; T47D; U-251; UACC-257; UACC-62.
Assay in all cases: DTP human tumour cell line panel, 48 h

Consider `O=C1C(Cl)=C(Nc2ccc(S(=O)(=O)Nc3ccccn3)cc2)C(=O)c2ccccc21`, for which the GI50 in the test with 786-0 was 8.22 µM (inactive); in the test on A498 it was 20.7 µM (inactive); in the test on BT-549 it was 14.4 µM (inactive); in the test on CAKI-1, 16.8 µM (inactive); in the test with HCT-116, 6.24 µM (inactive); in the test on Hs-578T it was 13.1 µM (inactive). Moreover, the GI50 was 5.15 µM (inactive) in the test on MCF7; 6.46 µM (inactive) in the test on MDA-N; 2.96 µM (inactive) with Malme-3M; 20.7 µM (inactive) in the test with NCI-H226; 17.3 µM (inactive) in the test on OVCAR-4; 15.3 µM (inactive) in the test with SF-295. The GI50 in the test on SK-MEL-28 was 16.3 µM (inactive); in the test on SK-MEL-2, 5.7 µM (inactive); in the test with SNB-19, 16.4 µM (inactive); in the test with T47D it was 6.08 µM (inactive); in the test on U-251, 5.6 µM (inactive); in the test with UACC-257, 5 µM (inactive). For the same compound, the GI50 in the test on UACC-62 is 5.6 µM (inactive).
Take `CCCCn1cnc2c(c(CC#N)nn2-c2ccccc2)c1=N`: the GI50 in the test on 786-0 is 57.1 µM (inactive); with A498 it was 24.5 µM (inactive); with BT-549, 37.8 µM (inactive); in the test on CAKI-1, > 100 µM (inactive); in the test with HCT-116, 48.6 µM (inactive); with Hs-578T, 39.9 µM (inactive). Also, the GI50 in the test with MCF7 was 43.2 µM (inactive); in the test with MDA-N, 38.1 µM (inactive); in the test on Malme-3M, 63.5 µM (inactive); in the test on NCI-H226, 79.1 µM (inactive); in the test with OVCAR-4, 29.8 µM (inactive); in the test on SF-295, 30.4 µM (inactive). Moreover, the GI50 with SK-MEL-28 was 44.1 µM (inactive); with SK-MEL-2 it was 23.7 µM (inactive); in the test with SNB-19, > 100 µM (inactive); in the test with T47D, 35.7 µM (inactive); in the test on U-251, 37.9 µM (inactive); with UACC-257 it was 35.4 µM (inactive). For the same compound, in the test on UACC-62, the GI50 was 20.2 µM (inactive).
Consider `CCOC(=O)NC(NCC(O)c1ccccc1)(C(F)(F)F)C(F)(F)F` (configuration not stated), for which the GI50 with A498, with BT-549, with CAKI-1, in the test on HCT-116, in the test with Hs-578T and in the test on MCF7 was > 100 µM (inactive) in each case. The GI50 in the test with MDA-N, in the test on Malme-3M, with NCI-H226, in the test on SK-MEL-28, in the test on SK-MEL-2 and with SNB-19 was > 100 µM (inactive) each time. In addition, the GI50 in the test on T47D, with U-251, with UACC-257 and with UACC-62 was > 100 µM (inactive) throughout.
Consider `COc1cc2c(c(OC)c1OC)-c1ccc(SC)c(=O)cc1[C@@H](O)CC2`, for which the 50% growth inhibitory concentration (GI50) in the test with 786-0 was 0.000834 µM (active); with A498 it was 0.0305 µM (active); with BT-549, 0.00168 µM (active); in the test with CAKI-1, 0.00166 µM (active); in the test with HCT-116 it was 0.000381 µM (active); in the test on Hs-578T, 0.000261 µM (active). For the same compound, the GI50 in the test with MCF7 was 0.000386 µM (active); in the test with MDA-N, 0.000121 µM (active); in the test on Malme-3M it was 0.00021 µM (active); in the test on NCI-H226, 0.000703 µM (active); with OVCAR-4, > 1 µM (active); in the test on SF-295 it was 0.000225 µM (active). Also, the 50% growth inhibitory concentration (GI50) in the test with SK-MEL-28 is 0.0222 µM (active); in the test on SK-MEL-2 it was 0.00367 µM (active); in the test with SNB-19, 0.00104 µM (active); with T47D, > 1 µM (active); in the test with U-251 it was 0.000378 µM (active); in the test on UACC-257, 0.0252 µM (active). For the same compound, the GI50 in the test on UACC-62 was 0.000469 µM (active).
For `O=C(O)/C=N/NC(=S)NC1CCCCC1`, the GI50 with 786-0, in the test with A498, in the test with BT-549, with CAKI-1, with HCT-116 and in the test on Hs-578T was > 100 µM (inactive) throughout. For the same compound, the GI50 in the test with MCF7, with MDA-N, with Malme-3M, with NCI-H226, with OVCAR-4 and with SF-295 was > 100 µM (inactive) each time. Besides, the GI50 with SK-MEL-28, in the test on SK-MEL-2, with SNB-19, with T47D, in the test on U-251 and with UACC-257 was > 100 µM (inactive) in each case. The GI50 with UACC-62 is > 100 µM (inactive).
Regarding `CC(C)CCCC(=O)CCCCCCC(=O)CCN(O)C(=O)C(N)CO` (configuration not stated), the GI50 is 16 µM (inactive) in the test with 786-0; 16.3 µM (inactive) in the test with A498; 14.7 µM (inactive) in the test on BT-549; 16 µM (inactive) with CAKI-1; 17.7 µM (inactive) in the test with HCT-116; 28.5 µM (inactive) in the test on Hs-578T. For the same compound, the GI50 in the test with MCF7 is 19.8 µM (inactive); with MDA-N it was 21.8 µM (inactive); with Malme-3M, 13.7 µM (inactive); with NCI-H226 it was 14 µM (inactive); in the test on SF-295, 18.3 µM (inactive); in the test with SK-MEL-28, 19.1 µM (inactive). The GI50 was 17.1 µM (inactive) in the test on SK-MEL-2; 22.5 µM (inactive) in the test with SNB-19; 13.8 µM (inactive) in the test on T47D; 21.8 µM (inactive) in the test on U-251; 17.3 µM (inactive) with UACC-257; 16.7 µM (inactive) in the test on UACC-62.
With `Cn1c(=S)[nH]c2sc3c(c2c1=O)CCSC3`, the GI50 was 76.6 µM (inactive) in the test with 786-0; 31.6 µM (inactive) in the test on A498; 32.4 µM (inactive) with BT-549; 44.8 µM (inactive) in the test on CAKI-1; 34.8 µM (inactive) in the test on HCT-116; > 100 µM (inactive) in the test on Hs-578T. Moreover, the GI50 in the test with MCF7 is 44.3 µM (inactive); in the test on MDA-N, 54.7 µM (inactive); in the test on Malme-3M, 58.2 µM (inactive); in the test on NCI-H226 it was 22 µM (inactive); with OVCAR-4 it was 43 µM (inactive); in the test on SF-295 it was 29.9 µM (inactive). Also, the GI50 in the test on SK-MEL-2 was > 100 µM (inactive); in the test with SNB-19 it was 47.4 µM (inactive); with T47D, 25.1 µM (inactive); in the test with U-251, 40.5 µM (inactive); in the test with UACC-257, 41.8 µM (inactive); in the test on UACC-62, 24.8 µM (inactive).
`CCOC(=O)/C(=N\OC)C(O)C(F)(F)F` (configuration not stated): the GI50 in the test on 786-0, in the test on A498, in the test on BT-549, with CAKI-1, in the test with HCT-116 and in the test on Hs-578T was > 100 µM (inactive) in each case. The GI50 in the test on MCF7, in the test on MDA-N, in the test with Malme-3M, with NCI-H226, in the test on SF-295 and in the test on SK-MEL-28 was > 100 µM (inactive) in each case. For the same compound, the GI50 with SK-MEL-2, in the test with SNB-19, in the test with T47D, with U-251, with UACC-257 and in the test with UACC-62 was > 100 µM (inactive) in each case.
`CSc1c(C#N)c(O)n(-c2ccc(Cl)cc2)c(=O)c1C(C)=O`: the GI50 with 786-0 is 37.7 µM (inactive); in the test on A498, 29.3 µM (inactive); with BT-549, 90.6 µM (inactive); in the test with CAKI-1, 18.7 µM (inactive); in the test with HCT-116, 38.1 µM (inactive); with Hs-578T, > 100 µM (inactive). Moreover, the GI50 in the test on MCF7 was 52.4 µM (inactive); in the test on MDA-N, 55.5 µM (inactive); in the test on Malme-3M it was 23.3 µM (inactive); in the test on NCI-H226, 26.9 µM (inactive); with OVCAR-4, 37.5 µM (inactive); with SK-MEL-28, > 100 µM (inactive). The GI50 with SK-MEL-2 was > 100 µM (inactive); with SNB-19 it was 88.5 µM (inactive); in the test with T47D, 27.1 µM (inactive); in the test with U-251, > 100 µM (inactive); with UACC-257, > 100 µM (inactive); with UACC-62, 69.3 µM (inactive).
With `CC1=C(C(=O)Nc2ccccc2)C(c2ccc(C)o2)C(C#N)=C(SCc2ccccc2)N1` (configuration not stated), the GI50 is > 100 µM (inactive) in the test with 786-0; > 81.5 µM (inactive) with A498; 43.4 µM (inactive) in the test on BT-549; > 100 µM (inactive) in the test with CAKI-1; 33.3 µM (inactive) in the test with HCT-116; > 87.3 µM (inactive) in the test with Hs-578T. Besides, the GI50 was 19.8 µM (inactive) with MCF7; 5.38 µM (inactive) in the test on MDA-N; 5.77 µM (inactive) in the test with Malme-3M; > 100 µM (inactive) in the test on NCI-H226; > 72.3 µM (inactive) with OVCAR-4; 96.2 µM (inactive) with SF-295. The GI50 with SK-MEL-28 is > 100 µM (inactive); in the test with SK-MEL-2, > 100 µM (inactive); in the test on SNB-19, > 100 µM (inactive); in the test on T47D it was 13.3 µM (inactive); in the test with U-251, > 100 µM (inactive); in the test on UACC-257 it was > 100 µM (inactive). Also, the GI50 in the test on UACC-62 is 18.9 µM (inactive).
For `C(=C\c1ccccc1)/COc1ccccc1C(N1CCOCC1)n1nc2ccccc2n1` (configuration not stated), the GI50 is 3.29 µM (inactive) in the test on 786-0; 38.1 µM (inactive) in the test with A498; 7.55 µM (inactive) in the test on BT-549; 15.2 µM (inactive) with CAKI-1; 5.31 µM (inactive) in the test with HCT-116; 7.24 µM (inactive) in the test on Hs-578T. Besides, the GI50 in the test on MCF7 is 1.4 µM (inactive); with MDA-N, 0.621 µM (active); with Malme-3M, 2.99 µM (inactive); with NCI-H226, 7.28 µM (inactive); in the test on OVCAR-4 it was 12.2 µM (inactive); in the test on SF-295 it was 8.95 µM (inactive). Moreover, the GI50 was 10.7 µM (inactive) in the test with SK-MEL-28; 7.23 µM (inactive) in the test with SK-MEL-2; 19.2 µM (inactive) in the test on SNB-19; 10.7 µM (inactive) with T47D; 3.08 µM (inactive) with U-251; 5.51 µM (inactive) with UACC-257. Besides, the GI50 in the test on UACC-62 is 3 µM (inactive).
